pEC50: −log10 of the molar value.
Biological target: T1, recombinant Sirt6 enzyme (Homo sapiens, UniProt Q8N6T7)
T1 construct: purchased Cyclex CY-1156
Assay: CycLex Sirt6 deacetylase fluorometric assay (cat. CY-1156)
Assay type: biochemical
Details: 1 h, room temperature; for pEC50: increase of Sirt6 deacetylase activity; for activity at 5 µM (stock): screening at 5uM, no test sample control = 100

T1 sequence (Q8N6T7 whole entry): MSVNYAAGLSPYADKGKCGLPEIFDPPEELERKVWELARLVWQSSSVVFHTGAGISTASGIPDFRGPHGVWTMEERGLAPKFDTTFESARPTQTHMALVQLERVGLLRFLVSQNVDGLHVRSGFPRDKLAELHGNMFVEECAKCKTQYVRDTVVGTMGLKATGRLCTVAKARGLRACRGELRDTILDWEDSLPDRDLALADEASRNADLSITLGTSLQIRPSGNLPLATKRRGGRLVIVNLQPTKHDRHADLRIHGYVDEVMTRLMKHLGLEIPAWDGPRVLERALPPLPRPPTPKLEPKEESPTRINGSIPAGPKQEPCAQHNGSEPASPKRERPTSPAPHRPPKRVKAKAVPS

| pEC50 | activity at 5 µM (stock) | Structure (SMILES) |
| --- | --- | --- |
| 5.30 | ≥ 200% | NNc1nc2c(-c3cccc(C(F)(F)F)c3)nnn2c2ccccc12 [화학식 1, 5-hydrazinyl-3-(3-(trifluoromethyl)phenyl)-[1,2,3]triazolo[1,5-a]quinazoline] |
| 5.55 | ≥ 200% | COc1ccc(-c2nnn3c2nc(NC(C)c2ccccc2)c2ccccc23)cc1 (stereo not shown) [화학식 2, 3-(4-methoxyphenyl)-N-(1-phenylethyl)-[1,2,3]triazolo[1,5-a]quinazolin-5-amine] |

Source: patent publication KR20170082372A, “Sirt6의 활성 조절용 조성물” (한국화학연구원, priority 2016, dated 2017)
